Assays:
[1] = tested on: SD rats with bleomycin-induced pulmonary fibrosis; assay: Bleomycin-induced pulmonary fibrosis animal model; type: in vivo; settings: bleomycin 5 mg/kg intratracheal, polypeptides 7.5 mg/kg subcutaneous twice a day, positive drug 25 mg/kg intragastric once a day, 14 days
Protocol: SD rats were anesthetized by intraperitoneal injection of 1 mL/100 g 4% chloral hydrate. After anesthesia, the rats were fixed and their necks were disinfected by using cotton with 75% alcohol. The skin of the rat neck was longitudinally cut with scissors, and the fascia and muscle were longitudinally bluntly torn with tweezers to expose the trachea. A syringe was inserted into the trachea to inject 5 mg/kg bleomycin, while a blank group was injected with an equal amount of normal saline. Then a rat plate was quickly erected and rotated, the rats' breathing was observed, the neck wound was sterilized after rotation and was sewn, and an amoxicillin anti-inflammatory drug was sprinkled on the suture. After the operation, the rats were put back into a dry and clean cage for resting, waiting was performed for awakening. The rats were awakened after about 1-2 hours, and then fed normally. On the 7th day after modeling, modeling group animals randomly fell into a model group, a Nintedanib positive drug group, polypeptide I, II, III and IV dosage groups, and a normal control group, and the groups were administered separately for an administration cycle of 14 days. Living situations of rats were observed every day and their weights were weighed.

streptococcus pneumoniae = assay: Mouse pneumonia model, bacterial pneumonia; type: in vivo, BALB/C mice; settings: average values±standard deviation
From the text: (§1) A mouse pneumonia model was successfully established by using a nasal drip method. BALB/C mice with a body weight of 18-24 g were selected, and then anesthetized with ether on day 0, day 1 and day 2, respectively, prepared streptococcus pneumoniae bacteria solution, adenovirus concentrated solution, mycoplasma pneumoniae, chlamydia pneumoniae, protozoa and pneumonia fungi were slowly dropped into the nasal cavity of the mice, so that the bacteria solutions entered the trachea and bronchi, and the bacteria solutions were prevented from flowing into the esophagus during the operation to avoid inactivation of the bacteria solutions, so that the mouse pneumonia model was established. After the model was successfully established, the polypeptide according to the present disclosure was administered, as shown in FIG. 7 and Table 9. […] The experimental results are represented on the basis of average values±standard deviation.

adenovirus = assay: Mouse pneumonia model, viral pneumonia; type: in vivo, BALB/C mice; settings: average values±standard deviation
From the text: as §1

mycoplasma pneumoniae = assay: Mouse pneumonia model, mycoplasma pneumonia; type: in vivo, BALB/C mice; settings: average values±standard deviation
From the text: as §1

chlamydia pneumoniae = assay: Mouse pneumonia model, chlamydia pneumonia; type: in vivo, BALB/C mice; settings: average values±standard deviation
From the text: as §1

protozoa = assay: Mouse pneumonia model, protozoal pneumonia; type: in vivo, BALB/C mice; settings: average values±standard deviation
From the text: as §1

pneumonia fungi = assay: Mouse pneumonia model, fungal pneumonia; type: in vivo, BALB/C mice; settings: average values±standard deviation
From the text: as §1

pulmonary infections = assay: Mouse pneumonia model, pneumonia caused by pulmonary infections; type: in vivo, BALB/C mice; settings: average values±standard deviation
From the text: as §1

Row | Compound | Survival rate (%) [1] [%] | Inhibitory effect on pulmonary infections, Bacterial pneumonia (streptococcus pneumoniae) | Inhibitory effect on pulmonary infections, Viral pneumonia (adenovirus) | Inhibitory effect on pulmonary infections, Mycoplasma pneumonia (mycoplasma pneumoniae) | Inhibitory effect on pulmonary infections, Chlamydia pneumonia (chlamydia pneumoniae) | Inhibitory effect on pulmonary infections, Protozoal pneumonia (protozoa) | Inhibitory effect on pulmonary infections, Fungal pneumonia (pneumonia fungi) | Inhibitory effect on pulmonary infections, Pneumonia caused by pulmonary infections (pulmonary infections)
1 | COC(=O)c1ccc2c(c1)NC(=O)/C2=C(\Nc1ccc(N(C)C(=O)CN2CCN(C)CC2)cc1)c1ccccc1 [Positive drug, Nintedanib, reference compound] | 85.7 |  |  |  |  |  |  | 
2 | Penicillin [reference compound] |  | 35.05 ± 5.75 | 38.07 ± 2.27 | 41.77 ± 5.73 | 30.75 ± 3.31 | 39.04 ± 3.71 | 38.61 ± 3.82 | 35.67 ± 4.55
